Values joined by “and” are separate entries in the source; they are usually repeats but may differ in a detail not shown here. Equal entries are not always repeated. Active and inactive are the calls of the source. The calls are words filed in the database; no cut-off is given here.
Key:
[1] = Half life in rat liver microsomes; format: ADME, Microsome
[2] = Half life in monkey liver microsomes; format: ADME, Microsome; conditions: cercopithecidae
[3] = Half life in human liver microsomes; format: ADME, Microsome
[4] = Stimulation of [35S]GTPcS binding against recombinant human opioid receptor delta 1; format: functional
[5] = Stimulation of [35S]GTPcS binding against recombinant human opioid receptor mu 1; format: functional
[6] = Stimulation of [35S]GTPcS binding against recombinant human opioid receptor kappa 1; format: functional
[7] = Inhibition of [3H]U-69593 binding to recombinant human Opioid receptor kappa 1
Homo sapiens [8] = species: Homo sapiens; assay: Percentage stimulation of [35S]GTPcS binding compared to relevant control; ND=Not detectable activity; format: functional
[9] = Inhibition of [3H]DPDPE binding to recombinant human Opioid receptor delta 1
Mu-type opioid receptor = Mu-type opioid receptor (Homo sapiens, UniProt P35372); assay: Inhibition of [3H]-DAMGO binding to recombinant human Opioid receptor mu 1
Chain of Mu-type opioid receptor (P35372 whole entry): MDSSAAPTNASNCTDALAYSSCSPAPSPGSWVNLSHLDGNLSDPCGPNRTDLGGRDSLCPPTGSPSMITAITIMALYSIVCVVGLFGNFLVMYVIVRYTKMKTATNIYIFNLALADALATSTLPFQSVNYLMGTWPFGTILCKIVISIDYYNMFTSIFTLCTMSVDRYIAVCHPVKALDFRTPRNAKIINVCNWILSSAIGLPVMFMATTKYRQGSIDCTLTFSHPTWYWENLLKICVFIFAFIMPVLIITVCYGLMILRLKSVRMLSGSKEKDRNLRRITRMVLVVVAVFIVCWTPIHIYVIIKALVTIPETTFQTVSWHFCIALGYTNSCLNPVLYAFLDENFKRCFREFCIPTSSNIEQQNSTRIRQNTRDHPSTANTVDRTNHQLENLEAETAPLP

[10] = biological target: Opioid receptors; mu & delta (Homo sapiens) (UniProt P41143+P35372); assay: Receptor selectivity ratio for Opioid receptors delta 1 and mu 1; format: protein assay
Chain of Opioid receptors; mu & delta (Homo sapiens) (P35372 whole entry, looked up): as the sequence (P35372 whole entry) above
Chain of Opioid receptors; mu & delta (Homo sapiens) (P41143 whole entry, looked up): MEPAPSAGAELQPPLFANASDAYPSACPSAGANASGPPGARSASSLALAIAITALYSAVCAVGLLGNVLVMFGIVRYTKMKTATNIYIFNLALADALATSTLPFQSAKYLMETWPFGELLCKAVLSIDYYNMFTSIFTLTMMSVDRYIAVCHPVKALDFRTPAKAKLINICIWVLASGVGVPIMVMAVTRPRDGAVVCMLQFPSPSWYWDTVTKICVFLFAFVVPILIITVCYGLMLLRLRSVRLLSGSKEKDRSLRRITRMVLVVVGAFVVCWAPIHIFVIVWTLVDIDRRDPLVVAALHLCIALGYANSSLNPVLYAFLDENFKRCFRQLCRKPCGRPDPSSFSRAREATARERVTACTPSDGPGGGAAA

Homo sapiens [11] = species: Homo sapiens; assay: Percentage stimulation of [35S]-GTPcS binding compared to relevant control; format: functional
[12] = Stimulation of [35S]GTPcS binding against recombinant human opioid receptor kappa 1;ND=no detectable activity; format: functional
Homo sapiens [13] = species: Homo sapiens; assay: Percentage stimulation of [35S]GTPcS binding compared to relevant control;ND=no detectable activity; format: functional

Row | Compound | half-life [1] | half-life [2] | half-life [3] | EC50 [4] | EC50 [5] | EC50 [6] | Ki [7] | Emax (Homo sapiens [8]) | Ki [9] | Ki (Mu-type opioid receptor) | Selectivity [10] | Emax (Homo sapiens [11]) | EC50 [12] | Emax (Homo sapiens [13])
1 | COC1[C@H](NC(=O)CC2OC(COCc3ccccc3)C(OCc3ccccc3)C(OCc3ccccc3)C2OCc2ccccc2)CC[C@H]2[C@H]3Cc4ccc(O)cc4[C@@]12CCN3C (some centres not stated) | 19.8 min | 90 min | 42.9 min |  |  |  |  |  |  |  |  |  |  | 
2 | CN1CC[C@]23c4c5ccc(O)c4O[C@H]2[C@@H](O[C@@H]2O[C@H](C(=O)O)[C@@H](O)[C@H](O)[C@H]2O)C=C[C@H]3[C@H]1C5 [MORPHINE GLUCURONIDE] |  |  |  | 190 nM | 72.3 nM | > 10000 nM | 4060 nM | inactive | 170 nM | 12.9 nM |  |  |  | 
3 | COC1[C@H](NC(=O)CC2OC(COCc3ccccc3)C(OCc3ccccc3)C(OCc3ccccc3)C2OCc2ccccc2)C=C[C@H]2[C@H]3Cc4ccc(O)cc4[C@@]12CCN3C (some centres not stated) | 24.6 min | 30.7 min |  | 2.2 nM | 623 nM | 1.8 nM | 15.8 nM |  | 7.2 nM | 0.5 nM |  |  |  | 
4 | COC1[C@H](NC(=O)CC2OC(CO)C(O)C(O)C2O)C=C[C@H]2[C@H]3Cc4ccc(O)cc4[C@@]12CCN3C (some centres not stated) [DEPROTECTED COGENER OF M6G] |  |  |  | 335 nM | 37.2 nM |  |  |  | 266 nM | 3.5 nM | 76.7 and 166 |  |  | 
5 | COC1[C@H](SC2OC(CO)C(O)C(O)C2O)C=C[C@H]2[C@H]3Cc4ccc(O)cc4[C@@]12CCN3C (some centres not stated) |  |  |  | 192 nM | 91.5 nM | 321 nM | 136 nM |  | 56.2 nM |  | 10.4 and 25.4 | 42.5% and 64.5% and 51.5% |  | 
6 | COC1[C@H](SC2OC(C(=O)O)C(O)C(O)C2O)C=C[C@H]2[C@H]3Cc4ccc(O)cc4[C@@]12CCN3C (some centres not stated) |  |  |  | 50.1 nM | 90.6 nM |  | 288 nM |  | 31.4 nM | 8.7 nM |  |  | Not Active | inactive
